Results: a melting point compilation (Tetko et al.; mined from patent text by program, amines drawn as free bases though some values may be those of a salt)

In the case of `O=C(Nc1ccc(C(=O)N2CCCCc3sc(Cl)cc32)cc1)c1ccc(Cl)cc1Cl`, the melting point is reported as 187 to 189 °C. In the case of `Cc1ccc(Nc2ccc(OC(F)(F)F)cc2)cc1`, the melting point is reported as 43.7 °C. With `CCC(=O)N(OC(=O)NC)C(=O)NC` the melting point was 90.5 to 92.5 °C. Work on `C=CC[C@H]1CC(C(=O)O)=C[C@@H](OC(CC)CC)[C@@H]1NC(C)=O` yielded a melting point of 229 to 230 °C. Compound `O=C(C1COc2ccccc2O1)N1CCNCC1` (centres undefined) has a melting point of 84 to 85 °C. `Cc1cc(C(=O)N2CCC3(CC2)CSC2=C(O3)c3ccccc3C(=O)C2=O)n(C)n1` gave a melting point of 244 to 245 °C. In the case of `Cc1ccc(-c2nnc(N3CCCCCC3)nc2-c2ccc(C)cc2)cc1`, the melting point is reported as 162 to 164 °C. In the case of `CCOCc1nc2c(N)nc3cc(-c4cccc(CO)c4)cnc3c2n1CC(C)(C)NS(C)(=O)=O`, the melting point is reported as 173 to 174 °C. Work on `CC(C)CCOc1cc(C(=O)O)cc([N+](=O)[O-])c1` yielded a melting point of 142 °C. For `Cc1cc(Nc2ccnc(Nc3ccc(C(=O)N(C)C4CCCN(CCCC(F)(F)F)C4)cc3)n2)ccc1F` (centres undefined), the melting point was 100 to 110 °C. Work on `CCCCCCCCCCOc1ccc(-c2ccc(C#CCCC(C)OC)cc2)cc1` (centres undefined) yielded a melting point of 97 to 99 °C. With `C=CCc1c(OCc2ccc3ccccc3n2)ccc2c1c(SC(C)(C)C)c(CC(C)(C)C(=O)O)n2Cc1ccc(Cl)cc1` the melting point was 103 to 105 °C. `CCCC(=O)N[C@H]1CC[C@H](CCN2CCN(c3nccc4c3OCC4)CC2)CC1` showed a melting point of 183 °C. Work on `CC1(C)CC(C2CCC(O)CC2)CC(C)(C)N1` (centres undefined) yielded a melting point of 145 to 150 °C. `Cc1cc(C(=O)N(C)C)cc(N)n1` showed a melting point of 165 to 171 °C. With `CN1C(C(=O)Nc2ccc(Cl)ccc2=O)=C(O)c2sccc2S1(=O)=O` the melting point was 243 to 245 °C. With `Cc1cccc(-c2cc(C(=O)NCCCCCCCc3ccccc3)cc(-c3cccc(C)c3)c2OCC(=O)O)c1` the melting point was 58 to 62 °C. For `Clc1cc(Cl)c2cccc3c2c1N=C3NCCCCCCCCCCn1ccnc1`, the melting point was 129 to 131 °C. In the case of `CCCCc1nc2cc(Cl)c(Cl)c(C(=O)O)c2n1Cc1ccccc1Cl`, the melting point is reported as 240 °C. In the case of `COC(=O)c1ccc2c(-c3ccccc3)cc(=O)oc2c1`, the melting point is reported as 133 to 135 °C. `Fc1ccc2[nH]c3c(c2c1)CN(CCCCc1ccncc1)CC3` showed a melting point of 210 to 212 °C. Compound `CC(NC(=O)Cc1cc(F)cc(F)c1)C(=O)C1(N)N=C(c2ccccc2)c2cc(Cl)ccc2N(C)C1=O` (centres undefined) has a melting point of 126 to 130 °C. `CC(C)NC(=NC#N)Nc1ccc(C2=NNC(=O)CC2C)cc1` (centres undefined) showed a melting point of 255 °C. In the case of `CCCCN(CCCC)C(=O)CC1(c2ccc(OCOC)cc2)NCC(c2ccc3c(c2)OCO3)C1C(=O)O` (centres undefined), the melting point is reported as 48 to 49 °C. For `COc1nccnc1C1(O)CN2CCC1CC2` (centres undefined), the melting point was 130 to 131 °C. `c1ccc2c(=Nc3ccncc3)cc3oc4cc(N5CCCCC5)ccc4nc-3c2c1` gave a melting point of 267 to 268 °C. `CCNC[C@H]1CCc2cc(F)cc(-c3c(Cl)cccc3Cl)c2O1` gave a melting point of over 225 °C. In the case of `COc1ccc(S(=O)(=O)C2(C(=O)NO)CCN(Cc3ccc(C)cc3)CC2)cc1`, the melting point is reported as 176 to 177 °C. `CCOP(=O)(/C=C/c1cn(-c2ccccc2)nc1OCc1ccc(OCc2nc(-c3ccccc3)oc2C)c(OC)c1)OCC` gave a melting point of 92 to 93 °C. `COC(=O)c1ccc(Cc2cn(C)c3ccc(C(=O)O)cc23)c(OC)c1` showed a melting point of 249 to 251 °C. Compound `CCCc1c2occ(C(=O)O)cc-2c(=O)c2cc(C(=O)O)sc12` has a melting point of over 250 °C. In the case of `Cc1cc(-c2ccc(OC3SCC(O)C(O)C3O)c(F)n2)ccn1` (centres undefined), the melting point is reported as 159 to 162 °C. Compound `COc1c(Cl)ccc(-c2cc(N)c(Cl)c(C(=O)N3CC=CCO3)n2)c1F` has a melting point of 78 to 81 °C. Compound `CC(C)(C)c1cc(SCCSCCC(=O)O)cc(C(C)(C)C)c1O` has a melting point of 57.5 °C. Work on `CC(O)C(=O)NCCNC(=O)C(C)O` (centres undefined) yielded a melting point of 188 °C. Compound `Cc1cc(O)nc2cc(Br)ccc12` has a melting point of 275 to 276 °C. `O=C(c1ccccc1)c1ccc(Cl)c(N=C=S)c1` showed a melting point of 96.7 °C. Compound `N#Cc1ccc(S(=O)(=O)N2CCN(c3ccncc3)CC2)cc1` has a melting point of 212 to 213 °C. Work on `CCCCCCCCC(=O)NCCc1ccc(O)cc1` yielded a melting point of 65.9 to 66.7 °C.
